Results: ChEMBL document CHEMBL3045535, “Evaluation of lufenuron as a chemosterilant against fruit flies of the genus Anastrepha (Diptera: Tephritidae)” (2010)
The source made the active and inactive calls. The rule behind the calls is not given here.

Assays:
Anastrepha obliqua [1] = experiment: Effect on fertility in 7 days old adult male of Anastrepha obliqua at 30 mg/g treated with diet after 24 hr in presence of untreated adult female of Anastrepha obliqua; assay type: functional, organism-based
Anastrepha serpentina [2] = experiment: Reduction of fertility in 7 days old adult of Anastrepha serpentina assessed as reduction of egg hatching at 10 mg/g treated with diet measured after 3 days oviposition; assay type: functional; set-up: scale not given: the % may be the effect or the level left
Anastrepha ludens [3] = experiment: Reduction of fertility in 7 days old adult of Anastrepha ludens assessed as reduction of egg hatching at 1 mg/g treated with diet measured after 1 day oviposition; assay type: functional; set-up: scale not given: the % may be the effect or the level left
Anastrepha striata [4] = experiment: Effect on fertility in 7 days old adult male of Anastrepha striata at 30 mg/g treated with diet after 24 hr in presence of untreated adult female of Anastrepha striata; assay type: functional, organism-based
Anastrepha striata [5] = experiment: Reduction of fertility in 7 days old adult of Anastrepha striata assessed as reduction of egg hatching at 10 mg/g treated with diet measured after 7 days oviposition; assay type: functional; set-up: scale not given: the % may be the effect or the level left
Anastrepha obliqua [6] = experiment: Reduction of fertility in 7 days old adult of Anastrepha obliqua assessed as reduction of egg hatching at 5 mg/g treated with diet measured after 11 days oviposition; assay type: functional; set-up: scale not given: the % may be the effect or the level left
Anastrepha striata [7] = experiment: Reduction of fertility in 7 days old adult of Anastrepha striata assessed as reduction of egg hatching at 0.1 mg/g treated with diet measured after 5 days oviposition; assay type: functional; set-up: scale not given: the % may be the effect or the level left
Anastrepha serpentina [8] = experiment: Reduction of fertility in 7 days old adult of Anastrepha serpentina assessed as reduction of egg hatching at 5 mg/g treated with diet measured after 9 days oviposition; assay type: functional; set-up: scale not given: the % may be the effect or the level left
Anastrepha obliqua [9] = experiment: Effect on fecundity in 7 days old adult of Anastrepha obliqua at 0.1 to 30 mg/g treated with diet after 24 hr; assay type: functional, organism-based
Anastrepha ludens [10] = experiment: Reduction of fertility in 7 days old adult of Anastrepha ludens assessed as reduction of egg hatching at 30 mg/g treated with diet measured after 11 days oviposition; assay type: functional; set-up: scale not given: the % may be the effect or the level left
Anastrepha serpentina [11] = experiment: Reduction of fertility in 7 days old adult of Anastrepha serpentina assessed as reduction of egg hatching at 0.5 mg/g treated with diet measured after 9 days oviposition; assay type: functional; set-up: scale not given: the % may be the effect or the level left
Anastrepha obliqua [12] = experiment: Reduction of fertility in 7 days old adult of Anastrepha obliqua assessed as reduction of egg hatching at 10 mg/g treated with diet measured after 9 days oviposition; assay type: functional; set-up: scale not given: the % may be the effect or the level left
Anastrepha obliqua [13] = experiment: Reduction of fertility in 7 days old adult of Anastrepha obliqua assessed as reduction of egg hatching at 10 mg/g treated with diet measured after 1 day oviposition; assay type: functional; set-up: scale not given: the % may be the effect or the level left
Anastrepha serpentina [14] = experiment: Reduction of fertility in 7 days old adult of Anastrepha serpentina assessed as reduction of egg hatching at 30 mg/g treated with diet measured after 9 days oviposition; assay type: functional; set-up: scale not given: the % may be the effect or the level left
Anastrepha striata [15] = experiment: Effect on fecundity in 7 days old adult female of Anastrepha striata at 30 mg/g treated with diet after 24 hr in presence of untreated adult male of Anastrepha striata; assay type: functional, organism-based
Anastrepha serpentina [16] = experiment: Reduction of fertility in 7 days old adult of Anastrepha serpentina assessed as reduction of egg hatching at 0.1 mg/g treated with diet measured after 7 days oviposition; assay type: functional; set-up: scale not given: the % may be the effect or the level left
Anastrepha ludens [17] = experiment: Reduction of fertility in 7 days old adult of Anastrepha ludens assessed as reduction of egg hatching at 30 mg/g treated with diet measured after 9 days oviposition; assay type: functional; set-up: scale not given: the % may be the effect or the level left
Anastrepha ludens [18] = experiment: Effect on fecundity in 7 days old adult male of Anastrepha ludens at 30 mg/g treated with diet after 24 hr in presence of untreated adult female of Anastrepha ludens; assay type: functional, organism-based
Anastrepha ludens [19] = experiment: Reduction of fertility in 7 days old adult of Anastrepha ludens assessed as reduction of egg hatching at 10 mg/g treated with diet measured after 11 days oviposition; assay type: functional; set-up: scale not given: the % may be the effect or the level left
Anastrepha striata [20] = experiment: Reduction of fertility in 7 days old adult of Anastrepha striata assessed as reduction of egg hatching at 10 mg/g treated with diet measured after 9 days oviposition; assay type: functional; set-up: scale not given: the % may be the effect or the level left
Anastrepha serpentina [21] = experiment: Reduction of fertility in 7 days old adult of Anastrepha serpentina assessed as reduction of egg hatching at 5 mg/g treated with diet measured after 1 day oviposition; assay type: functional; set-up: scale not given: the % may be the effect or the level left
Anastrepha striata [22] = experiment: Reduction of fertility in 7 days old adult of Anastrepha striata assessed as reduction of egg hatching at 10 mg/g treated with diet measured after 3 days oviposition; assay type: functional; set-up: scale not given: the % may be the effect or the level left
Anastrepha striata [23] = experiment: Reduction of fertility in 7 days old adult of Anastrepha striata assessed as reduction of egg hatching at 10 mg/g treated with diet measured after 11 days oviposition; assay type: functional; set-up: scale not given: the % may be the effect or the level left
Anastrepha serpentina [24] = experiment: Reduction of fertility in 7 days old adult of Anastrepha serpentina assessed as reduction of egg hatching at 1 mg/g treated with diet measured after 11 days oviposition; assay type: functional; set-up: scale not given: the % may be the effect or the level left
Anastrepha obliqua [25] = experiment: Reduction of fertility in 7 days old adult of Anastrepha obliqua assessed as reduction of egg hatching at 5 mg/g treated with diet measured after 1 day oviposition; assay type: functional; set-up: scale not given: the % may be the effect or the level left
Anastrepha ludens [26] = experiment: Reduction of fertility in 7 days old adult of Anastrepha ludens assessed as reduction of egg hatching at 0.5 mg/g treated with diet measured after 3 days oviposition; assay type: functional; set-up: scale not given: the % may be the effect or the level left
Anastrepha ludens [27] = experiment: Reduction of fertility in 7 days old adult of Anastrepha ludens assessed as reduction of egg hatching at 0.5 mg/g treated with diet measured after 1 day oviposition; assay type: functional; set-up: scale not given: the % may be the effect or the level left
Anastrepha obliqua [28] = experiment: Reduction of fertility in 7 days old adult of Anastrepha obliqua assessed as reduction of egg hatching at 30 mg/g treated with diet measured after 11 days oviposition; assay type: functional; set-up: scale not given: the % may be the effect or the level left
Anastrepha serpentina [29] = experiment: Effect on fecundity in 7 days old adult female of Anastrepha serpentina at 30 mg/g treated with diet after 24 hr in presence of untreated adult male of Anastrepha serpentina; assay type: functional, organism-based
Anastrepha serpentina [30] = experiment: Reduction of fertility in 7 days old adult of Anastrepha serpentina assessed as reduction of egg hatching at 0.5 mg/g treated with diet measured after 1 day oviposition; assay type: functional; set-up: scale not given: the % may be the effect or the level left
Anastrepha serpentina [31] = experiment: Reduction of fertility in 7 days old adult of Anastrepha serpentina assessed as reduction of egg hatching at 5 mg/g treated with diet measured after 3 days oviposition; assay type: functional; set-up: scale not given: the % may be the effect or the level left
Anastrepha obliqua [32] = experiment: Effect on fecundity in 7 days old adult male of Anastrepha obliqua at 30 mg/g treated with diet after 24 hr in presence of untreated adult female of Anastrepha obliqua; assay type: functional, organism-based
Anastrepha striata [33] = experiment: Reduction of fertility in 7 days old adult of Anastrepha striata assessed as reduction of egg hatching at 5 mg/g treated with diet measured after 1 day oviposition; assay type: functional; set-up: scale not given: the % may be the effect or the level left
Anastrepha striata [34] = experiment: Reduction of fertility in 7 days old adult of Anastrepha striata assessed as reduction of egg hatching at 0.5 mg/g treated with diet measured after 1 day oviposition; assay type: functional; set-up: scale not given: the % may be the effect or the level left
Anastrepha obliqua [35] = experiment: Reduction of fertility in 7 days old adult of Anastrepha obliqua assessed as reduction of egg hatching at 0.5 mg/g treated with diet measured after 7 days oviposition; assay type: functional; set-up: scale not given: the % may be the effect or the level left
Anastrepha serpentina [36] = experiment: Reduction of fertility in 7 days old adult of Anastrepha serpentina assessed as reduction of egg hatching at 1 mg/g treated with diet measured after 5 days oviposition; assay type: functional; set-up: scale not given: the % may be the effect or the level left
Anastrepha striata [37] = experiment: Reduction of fertility in 7 days old adult of Anastrepha striata assessed as reduction of egg hatching at 0.5 mg/g treated with diet measured after 9 days oviposition; assay type: functional; set-up: scale not given: the % may be the effect or the level left
Anastrepha serpentina [38] = experiment: Effect on fecundity in 7 days old adult male of Anastrepha serpentina at 30 mg/g treated with diet after 24 hr in presence of untreated adult female of Anastrepha serpentina; assay type: functional, organism-based
Anastrepha striata [39] = experiment: Reduction of fertility in 7 days old adult of Anastrepha striata assessed as reduction of egg hatching at 0.1 mg/g treated with diet measured after 3 days oviposition; assay type: functional; set-up: scale not given: the % may be the effect or the level left
Anastrepha ludens [40] = experiment: Reduction of fertility in 7 days old adult of Anastrepha ludens assessed as reduction of egg hatching at 1 mg/g treated with diet measured after 3 days oviposition; assay type: functional; set-up: scale not given: the % may be the effect or the level left

O=C(NC(=O)c1c(F)cccc1F)Nc1cc(Cl)c(OC(F)(F)C(F)C(F)(F)F)cc1Cl (racemic) [LUFENURON] was tested, and the Activity (Anastrepha obliqua [1]) was “inactive”, the Activity (Anastrepha serpentina [2]) was 34.4% and the Activity (Anastrepha ludens [3]) was 8%. The Activity (Anastrepha striata [4]) was “inactive”, the Activity (Anastrepha striata [5]) was 0% and the Activity (Anastrepha obliqua [6]) was 0%. The Activity (Anastrepha striata [7]) was 60.7%, the Activity (Anastrepha serpentina [8]) was 83.3% and the Activity (Anastrepha obliqua [9]) was “inactive”. For the same compound, the Activity (Anastrepha ludens [10]) was 15.3%, the Activity (Anastrepha serpentina [11]) was 88% and the Activity (Anastrepha obliqua [12]) was 0%. The Activity (Anastrepha obliqua [13]) was 0%, the Activity (Anastrepha serpentina [14]) was 76.7% and the Activity (Anastrepha striata [15]) was “inactive”. The Activity (Anastrepha serpentina [16]) was 96.7%, the Activity (Anastrepha ludens [17]) was 15.3% and the Activity (Anastrepha ludens [18]) was “inactive”. It also gave an Activity (Anastrepha ludens [19]) of 16.7%, an Activity (Anastrepha striata [20]) of 6% and an Activity (Anastrepha serpentina [21]) of 34.8%. It also gave an Activity (Anastrepha striata [22]) of 10.7%, an Activity (Anastrepha striata [23]) of 6% and an Activity (Anastrepha serpentina [24]) of 91.2%. For the same compound, the Activity (Anastrepha obliqua [25]) was 1.3%, the Activity (Anastrepha ludens [26]) was 12% and the Activity (Anastrepha ludens [27]) was 8.7%. For the same compound, the Activity (Anastrepha obliqua [28]) was 2%, the Activity (Anastrepha serpentina [29]) was “inactive” and the Activity (Anastrepha serpentina [30]) was 88.3%. For the same compound, the Activity (Anastrepha serpentina [31]) was 58.9%, the Activity (Anastrepha obliqua [32]) was “inactive” and the Activity (Anastrepha striata [33]) was 3.3%. The Activity (Anastrepha striata [34]) was 13.3%, the Activity (Anastrepha obliqua [35]) was 0.7% and the Activity (Anastrepha serpentina [36]) was 71.8%. For the same compound, the Activity (Anastrepha striata [37]) was 40.7%, the Activity (Anastrepha serpentina [38]) was “inactive” and the Activity (Anastrepha striata [39]) was 80%. It also gave an Activity (Anastrepha ludens [40]) of 9.3%.
